From patent publication US20220315895A1, “METHODS OF MAKING OLIGOPOTENT AND UNIPOTENT PRECURSORS” (Transfusion Health, LLC, priority 2019, published 2022)

Experiments:
Format in all cases: cell-based, human
[1] = tested on: CD56+ NK lineage cells; experiment: NK-cell Maturation Culture (Example 41); settings: for % Mature cells: CD3−/CD19−/CD56+ of Live / % Mature cells: CD16+ of Live/CD3−/CD19−/CD56+ / % Mature cells: CD94+ of Live/CD3−/CD19−/CD56+ / % Mature cells: CD161+ of Live/CD3−/CD19−: NK, +Formula I-expanded CD34+ cells
Method: Following 14 days in Lymphoid Progenitor Differentiation Cultures, cells were placed into T- and NK-cell Maturation Cultures.
For NK-cell Maturation Cultures, cells from L Diff Cultures were plated at 25,000 cells per well in TC-treated 48-well plates with 250 μl of NK-cell Differentiation Medium, comprising StemSpan SFEM II medium with StemSpan NK Cell Differentiation Supplement and UM171 (STEMCELL Technologies), prepared according to the manufacturer's instructions, except substituting UM171 at 100 nM for the 1 μM UM729 called for in the protocol.
Following 4 days of culture, NK- and T-cell Maturation Cultures' medias were replenished by adding an equal volume of the same culture media added on day 14. At days 21 and 25 of NK- or T-cell Maturation Cultures, half-media changes were performed by removing half of the total volume of media without disturbing cells and adding media freshly prepared as on day 14.
Following 7 and 14 days in NK- and T-cell Maturation Culture (21 and 28 days from initiation of Lymphoid Differentiation Culture, respectively), cells were stained with antibodies to CD56, CD3, CD161, CD94, and CD16 and analyzed via flow cytometry to quantify T and NK lineage phenotypes.
“Adult Peripheral Blood Unit Equivalents per CBU” was calculated by multiplying each condition's Scaled Output (per CD34+ cell) by 10^6, a conservative estimate of the number of CD34+ cells in an umbilical cord blood unit, then dividing that quantity by the number of CD56+, CD3+ or CD8+ cells typically found in a unit of donated adult peripheral blood: 5×10^7 (CD56+), 10^9 (CD3+) or 3×10^8, according to Invitrogen (https://assets.thermofisher.com/TFS-Assets/LSG/brochures/I-076357%20cell%20count%20table%20topp_WEB.pdf).

[2] = tested on: CD34+ cells from cord blood; experiment: HSC Expansion Culture, 14 to 64 days (Example 42)
Method: Cryopreserved CD34+ cells from cord blood were purchased from STEMCELL Technologies. Primary human CD34+ cells were isolated by the supplier from cord blood samples using positive immunomagnetic separation techniques. Cells were thawed, gradually brought to room temperature, then washed. Cells were primed for expansion with overnight culture in StemSpan SFEM I with 100 ng/mL each of FLT3L, TPO, SCF, and IL-6. Eighteen-to-twenty-four hours later (day 1), cells were counted and immunophenotyped (flow cytometry on an Invitrogen Attune N×T cytometer). Cells were then placed into “HSC Expansion Culture,” described here, or placed directly into Differentiation Culture with STEMCELL's Myeloid StemSpan Myeloid Expansion Supplement (Granulocyte). Media for expanding CD34+ cell numbers was prepared in StemSpan SFEM II (STEMCELL) and added to duplicate 25 cm^2 flasks (4 ml total volume per flask). Expansion Culture conditions also included an antibiotic solution containing penicillin, streptomycin, and amphotericin B to avoid contamination. Additional media components and concentrations used for the conditions tested were as described above in Table 9. All incubations for Expansion Culture took place at 3% oxygen (controlled by nitrogen) and 5% CO2. During Expansion Culture, samples were taken for cell counting and phenotyping. […]

[3] = tested on: CD34+ cells from mobilized peripheral blood; experiment: Long-term expansion of HSCs, mobilized peripheral blood (Example 36); settings: Compound 1.010 8 μM, up to 21 days, from day 1
Method: CD34+ cells from mobilized peripheral blood were purchased from STEMCELL Technologies. The blood from volunteer donors was mobilized using G-CSF. Volunteers were administered a maximum of 10 μg/kg/day of granulocyte colony-stimulating factor (G-CSF) for 3-5 days prior to collection. Primary human CD34+ cells were isolated from mobilized peripheral blood leukapheresis samples using positive immunomagnetic separation techniques.
Cryopreserved CD34+ cell samples from each source were thawed and gradually brought to room temperature. Samples were washed then placed in overnight culture in StemSpan with 100 ng/ml each of FLT3L, TPO, SCF, and TL-6.
Cultures were incubated at 3% oxygen (controlled by nitrogen) and 5% CO2.
Twenty-four hours later (day 1), cells were counted and immunophenotyped (flow cytometry on an Invitrogen Attune N×T cytometer). The media components and concentrations used for the compounds tested are described in Table 7. Culture conditions also included an antibiotic solution that includes penicillin, streptomycin, and amphotericin B to avoid contamination. Approximately 1000 cells were added to each of the cord blood and mobilized peripheral blood flasks (5 ml total volume) or wells of a 96-well plate (200 μl total volume). Approximately 2000 cells were added to each of the non-mobilized peripheral blood flasks (5 ml total volume) or wells of a 96-well plate (200 μl total volume). Exact cell numbers dispensed per condition were quantified for later calculations of fold change from day 1.
Wells were analyzed at days 7 and 10, flasks were analyzed at 14 and 21 days of incubation. Cell numbers and phenotypes were quantified with flow cytometry. At day 14, fresh conditions for flasks were prepared as on day 1, and cells were split 1:20 into the new flasks. An additional seven days later (day 21 of culture), cell numbers and phenotypes were again quantified with flow cytometry. Cell numbers calculated at day 21 account for the passaging of the cells.
Conditions in 96-well plates were prepared in quadruplicate; conditions in flasks were prepared in duplicate. On the above-indicated number of days in culture, cells from wells or flasks were collected and phenotypes were analyzed (flow cytometry on an Invitrogen Attune N×T cytometer).

Question: Which results are given for `CC(C)(C)C(=O)Nc1ccc2c(c1)C(O)c1ccccc1-2` (stereo not shown) [Compound 1.010]?
Answer: CD56+ NK cells, of total live cells ([1]; CD34+ cells first expanded for 14 days in +Formula I conditions): 93%; % Mature cells: CD3−/CD19−/CD56+ of Live ([1]; Lymphoid Diff day 21): 91%; % Mature cells: CD16+ of Live/CD3−/CD19−/CD56+ ([1]; Lymphoid Diff day 21): 31%; % Mature cells: CD94+ of Live/CD3−/CD19−/CD56+ ([1]; Lymphoid Diff day 21): 7.8%; % Mature cells: CD161+ of Live/CD3−/CD19− ([1]; Lymphoid Diff day 21): 81%; % Mature cells: CD3−/CD19−/CD56+ of Live ([1]; Lymphoid Diff day 28): 95%; % Mature cells: CD16+ of Live/CD3−/CD19−/CD56+ ([1]; Lymphoid Diff day 28): 16%; % Mature cells: CD94+ of Live/CD3−/CD19−/CD56+ ([1]; Lymphoid Diff day 28): 3.5%; % Mature cells: CD161+ of Live/CD3−/CD19− ([1]; Lymphoid Diff day 28): 89%; fold expansion in CD34+ cell numbers ([2]; +Formula I conditions (Compound 1.010 8 μM), day 14): about 270 fold; fold expansion in CD34+ cell numbers ([2]; +Formula I conditions, day 64): about 86,000 fold; fold expansion of CD34+ cells [3]: greater than 20 fold; fold expansion of CD34+/CD133+ cells [3]: greater than 40 fold; fold expansion of CD34+/CD133+/CD90+ cells [3]: greater than 60 fold; fold expansion of CD34+/CD133+/CD90+/CD38low/− cells [3]: greater than 60 fold; fold expansion of CD34+/CD133+/CD90+/CD45RA− cells [3]: greater than 30 fold
